Test results: patent US10344019B2 (priority 2010, dated 2019)

Assays:
Format in all cases: cell-based
[1] = test system: Q30R in genotype 1a NS5A, 1a Rluc replicon transfected into Huh-7 cured-51 cells; assay: HCV replicon assay, resistance mutant 1a Q30R; settings: Hepatitis C virus, Huh-7, read-out: 1a Q30R
Procedure, shortened: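 Cells were Huh-7 cured-51 transfected with replicon RNA of a genotype 1a H77 RLuc replicon carrying site-directed Q30R in NS5A.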

[2] = test system: HCV 1b RLuc cells (dicistronic genotype 1b Con1 replicon, RLuc reporter); assay: microbe, parasite or virus in culture; settings: Hepatitis C virus, read-out: 1b (nM)
Procedure, shortened: (§1)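 Renilla luciferase HCV replicon cells: dicistronic 1b Con1, 1a H77 or 2a JFH-1 replicons, or a JFH-1 chimera carrying J6 NS5A (M31 present). Compound in DMSO serial dilutions, 72 h incubation, then lysis and luciferase read. EC50 by non-linear regression.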

[3] = test system: HCV 2b Rluc cells (NS5A chimeric genotype 2a JFH-1 replicon with genotype 2b MD2b-1 NS5A gene, M31 present); assay: microbe, parasite or virus in culture; settings: Hepatitis C virus, read-out: 2b
Procedure, shortened: (§2)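 Replicon cells stably carrying the listed RLuc-encoding dicistronic replicons were seeded and treated with DMSO serial dilutions of compound (10 mM stocks) diluted into culture medium. After 72 h, cells were lysed and Renilla luciferase activity measured. EC50 was derived by non-linear regression.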

[4] = test system: HCV 3a RLuc cells (NS5A chimeric genotype 1b Con1 replicon with consensus genotype 3a NS5A gene); assay: microbe, parasite or virus in culture; settings: Hepatitis C virus, read-out: 3a, genotype 3a replicon
Procedure, shortened: as §2

[5] = test system: HCV 2a JFH-1 Rluc cells (dicistronic genotype 2a JFH-1 replicon, RLuc reporter); assay: microbe, parasite or virus in culture; settings: Hepatitis C virus, genotype 2a JFH-1 replicon; read-out: 2a JFH
Procedure, shortened: as §1

[6] = test system: HCV 4a Rluc cells (NS5A chimeric genotype 1b Con1 replicon with genotype 4a NS5A gene); assay: microbe, parasite or virus in culture; settings: Hepatitis C virus, read-out: 4a
Procedure, shortened: as §2

[7] = test system: HCV 1a RLuc cells (dicistronic genotype 1a H77 replicon, RLuc reporter); assay: microbe, parasite or virus in culture; settings: Hepatitis C virus, genotype 1a replicon; read-out: 1a
Procedure, shortened: as §1

[8] = test system: HCV 2a Rluc cells (NS5A chimeric genotype 2a JFH-1 replicon with genotype 2a J6 strain NS5A gene, M31 present); assay: HCV replicon reporter assay, genotype 2a J6 (M31 present); settings: Hepatitis C virus, read-out: 2a J6
Procedure, shortened: as §1

Compound	EC50 [1] [nM]	EC50 [2] [nM]	EC50 [3] [nM]	EC50 [4] [nM]	EC50 [5] [nM]	EC50 [6] [nM]	EC50 [7] [nM]	EC50 [8] [nM]
COC[C@H]1C[C@@H](c2nc3ccc4cc(-c5ccc(-c6cnc([C@@H]7CCCN7C(=O)[C@@H](NC(=O)OC)C(C)C)[nH]6)cc5)ccc4c3[nH]2)N(C(=O)[C@H](NC(=O)OC)c2ccccc2)C1 [Example 433]	0.001 to 0.999	0.02	0.001 to 0.999	0.001 to 0.99	0.001 to 0.999	0.001 to 0.99	0.001 to 0.999	0.001 to 0.999
COC[C@H]1C[C@@H](c2nc3ccc4cc(-c5ccc6c(ccc7nc([C@@H]8C[C@H](COC)CN8C(=O)[C@@H](NC(=O)OC)C(C)C)[nH]c76)c5)ccc4c3[nH]2)N(C(=O)[C@@H](NC(=O)OC)C(C)C)C1 [Example 436]	0.001 to 0.999	0.051	0.001 to 0.999	0.001 to 0.99	0.001 to 0.999	0.001 to 0.99	0.001 to 0.999	0.001 to 0.999
COC[C@H]1C[C@@H](c2nc3ccc4cc(-c5ccc6c(ccc7nc([C@@H]8C[C@H](COC)CN8C(=O)[C@H](NC(=O)OC)c8ccccc8)[nH]c76)c5)ccc4c3[nH]2)N(C(=O)[C@@H](NC(=O)OC)C(C)C)C1 [Example 437]	0.001 to 0.999	0.048	0.001 to 0.999	0.001 to 0.99	0.001 to 0.999	0.001 to 0.99	0.001 to 0.999	0.001 to 0.999
COC(=O)N[C@H](C(=O)N1CCC[C@H]1c1ncc(-c2ccc(-c3ccc4c(ccc5nc([C@@H]6CCCN6C(=O)[C@@H](NC(=O)OC)C(C)C)[nH]c54)c3)c(C#Cc3ccccc3)c2)[nH]1)C(C)C [Example 438]	1 to 44	0.003	> 44	0.001 to 0.99	0.001 to 0.999	0.001 to 0.99	0.001 to 0.999	> 44
COC[C@H]1C[C@@H](c2ncc(-c3ccc(-c4ccc5c(ccc6nc([C@@H]7CCCN7C(=O)[C@@H](NC(=O)OC)C(C)C)[nH]c65)c4)cc3)[nH]2)N(C(=O)[C@H](NC(=O)OC)c2ccccc2)C1 [Example 446]	0.001 to 0.999	0.03	0.001 to 0.999	0.001 to 0.99	0.001 to 0.999	0.001 to 0.99	0.001 to 0.999	0.001 to 0.999
COC[C@H]1C[C@@H](c2nc3ccc4cc(-c5ccc6c(ccc7nc([C@@H]8CCCN8C(=O)[C@@H](NC(=O)OC)C(C)C)[nH]c76)c5)ccc4c3[nH]2)N(C(=O)[C@H](NC(=O)OC)c2ccccc2)C1 [Example 453]	0.001 to 0.999	0.018	0.001 to 0.999	0.001 to 0.99	0.001 to 0.999	0.001 to 0.99	0.001 to 0.999	0.001 to 0.999
COC[C@H]1C[C@@H](c2nc3ccc4cc(-c5ccc6c(ccc7nc([C@@H]8CCCN8C(=O)[C@H](NC(=O)OC)c8ccccc8)[nH]c76)c5)ccc4c3[nH]2)N(C(=O)[C@@H](NC(=O)OC)C(C)C)C1 [Example 454]	0.001 to 0.999	0.028	0.001 to 0.999	0.001 to 0.99	0.001 to 0.999	0.001 to 0.99	0.001 to 0.999	0.001 to 0.999
COC[C@H]1C[C@@H](c2nc3ccc4cc(-c5ccc6c(ccc7nc([C@@H]8C[C@H]9C[C@H]9N8C(=O)[C@@H](NC(=O)OC)C(C)C)[nH]c76)c5)ccc4c3[nH]2)N(C(=O)[C@H](NC(=O)OC)c2ccccc2)C1 [Example 472]	0.001 to 0.999	0.01	0.001 to 0.999	0.001 to 0.99	0.001 to 0.999	0.001 to 0.99	0.001 to 0.999	0.001 to 0.999
COC[C@H]1C[C@@H](c2nc3ccc4cc(-c5ccc(-c6cnc([C@@H]7CCCN7C(=O)[C@@H](NC(=O)OC)C(C)C)[nH]6)cc5)ccc4c3[nH]2)N(C(=O)[C@H](NC(=O)C2CC2)c2ccccc2)C1 [Example 475]	0.001 to 0.999	0.019	0.001 to 0.999	0.001 to 0.99	0.001 to 0.999	0.001 to 0.99	0.001 to 0.999	0.001 to 0.999
